In patent US4704384A, “Aziridinyl quinone antitumor agents” (priority 1981, dated 1987):
Several values for one entry are separate records, joined by “and”; a condition that tells them apart may be missing. Identical values can stand only once. Entries after “also recorded” stand apart in the source; their conditions may differ. Like-named read-outs stand apart in the source and are kept apart here.

Tests used:
[1] = test system: lymphoid leukemia L1210; settings: for OD / ILS / animals alive per 6 / T-C: Table VIII; for animals alive per 6: QD1-9, day 30, at OD
From the text: ^b Ip tumor implantation, ip QD19 treatment schedule.
^e ILS = [(treated survival + control survival) × 100%] - 100%
The L1210, P388 and B16 test systems described in Table II utilize intraperitoneal (IP) tumor implantation and IP drug treatment while the Lewis lung system employs subcutaneous tumor implantation and IP treatment. All three CNS tumor models (Table III) use intracerebral (IC) tumor implantation and IP treatment.
Aqueous saline solution (0.9%) was used as the drug vehicle. Normally, five doses were employed per experiment with the top dose chosen to produce toxicity. The lower doses were 50% of each preceeding dose.
Consistent with NCI antitumor test protocols, intraperitoneal (IP) administration of the drug was employed with all five tumor systems investigated. Tumor implantation was IP in the systems designated IP leukemia L1210 and P388 as well as B16 melanoma. Intracerebral (IC) tumor implantation was utilized in the IC L1210 and ependymoblastoma tumor systems.

[2] = test system: lymphoid leukemia L1210; assay type: in vivo, murine; settings: for OD: QD1-9, Table X; for ILS: QD1-9, at OD, Table X
From the text: (§1) A third IC tumor model, the ependymoblastoma system, was also studied. This system requires intracerebral implantation of a solid tumor fragment while the IC L1210 and IC P388 systems utilize IC inoculated ascites tumor fluid. All three use IP drug treatment however. […] Cures (survivors from the group of six mice on the last day of the experiment) are indicated.

[3] = test system: ependymoblastoma; assay type: in vivo, murine; settings: for OD: QD1-5, Table X; for animals alive per 6: QD1-5, day 60, at OD; for animals alive per 6 / ILS: Table X; for survivors, EM: Table XI, parentheses, per 6; for ILS: QD1-5, at OD
From the text: ^c Ic tumor implantation, ip QD15 treatment schedule.
as §1

[4] = test system: B16 melanocarcinoma; assay type: in vivo, murine; settings: for OD: QD1-9, Table IX; for ILS: QD1-9, at OD, Table IX
[5] = test system: lymphocytic leukemia P388; assay type: in vivo, murine; settings: for OD: QD1-9, Table IX; for ILS: QD1-9, at OD

| Structure (SMILES) | activity in IP L1210 [1] | OD ([1]; Day 1 only (1 injection)) | ILS ([1]; Day 1 only, at OD) | OD ([1]; Q4D (day 1,5,9)) | ILS ([1]; Q4D, at OD) | OD ([1]; QD1-9 (9 injections)) | ILS ([1]; QD1-9, at OD) | OD [3] | OD [4] | ILS [4] | OD [5] | ILS ([5]; Table IX) | ILS [3] | also measured |
| --- | --- | --- | --- | --- | --- | --- | --- | --- | --- | --- | --- | --- | --- | --- |
| CCSC1=C(N2CC2)C(=O)C(SCC)=C(N2CC2)C1=O [Compound 5] | not reproducible |  |  |  |  |  |  |  |  |  |  |  |  | % ILS ([1]; Q4D schedule): 30% |
| CCCSC1=C(N2CC2)C(=O)C(SCCC)=C(N2CC2)C1=O [Compound 6] | inactive |  |  |  |  |  |  |  |  |  |  |  |  |  |
| CCOC(=O)NC1=C(N2CC2C)C(=O)C(NC(=O)OCC)=C(N2CC2C)C1=O (stereo not drawn) [Compound 10] | abolished activity |  |  |  |  |  |  |  |  |  |  |  |  |  |
| CCOC(=O)NC1=C(N2CC2(C)C)C(=O)C(NC(=O)OCC)=C(N2CC2(C)C)C1=O [Compound 11] | abolished activity |  |  |  |  |  |  |  |  |  |  |  |  |  |
| CCOC(=O)NC1=C(NCCCl)C(=O)C(NC(=O)OCC)=C(NCCCl)C1=O [Compound 12] | activity was abolished |  |  |  |  |  |  |  |  |  |  |  |  |  |
| CC(=O)NC1=C(N2CC2(C)C)C(=O)C(NC(C)=O)=C(N2CC2(C)C)C1=O [Compound 21] | abolished activity |  |  |  |  |  |  |  |  |  |  |  |  |  |
| CNC1=C(N2CC2C)C(=O)C(NC)=C(N2CC2C)C1=O (stereo not drawn) [Compound 26] |  | 5.0 mg/kg/injection and 10.0 mg/kg/injection | 42% and 39% | 12.5 mg/kg/injection | 93% and 52% | 5.0 mg/kg/injection | 69% and 37% | 10.0 mg/kg/injection and 5.0 mg/kg/injection | 5.0 mg/kg/injection | 70% and 48% |  |  |  | OD [2]: 5.0 mg/kg/injection and 10.0 mg/kg/injection; ILS [2]: 39% and 25%; activity in ependymoblastoma [3]: highly active; animals alive per 6 [3]: 1; survivors, EM [3]: 1; activity in B16 melanoma [4]: reproducibly active |
| O=C1C(F)=C(N2CC2)C(=O)C(N2CCOCC2)=C1N1CC1 [Compound 31, 2,5-DIAZIRIDINYL-3-FLUORO-5-MORPHOLINO-1,4-BENZOQUINONE] |  |  |  | 6.2 mg/kg/injection and 3.1 mg/kg/injection |  |  |  | 0.8 mg/kg/injection and 1.5 mg/kg/injection | 0.7 mg/kg/injection | 18% and 9% | 3.0 mg/kg/injection and 6.0 mg/kg/injection | 57% and 54% | 49% and 40% | activity in IP P388 [5]: active against leukemia P388 |
| CNC1=C(N2CC2)C(=O)C(NC)=C(N2CC2)C1=O [Compound 34] |  | 0.7 mg/kg/injection |  | 0.8 mg/kg/injection and 0.4 mg/kg/injection | 57% and 56% | 0.2 mg/kg/injection | 73% and 61% | 0.2 mg/kg/injection and 0.4 mg/kg/injection |  | 39% and 29% | 0.2 mg/kg/injection and 0.1 mg/kg/injection | 95% and 69% | 219% and 218% | animals alive per 6 [1]: 1; activity in IC L1210 [2]: most active; also recorded: significant activity; OD [2]: 0.4 mg/kg/injection and 0.2 mg/kg/injection; ILS [2]: 68% and 60%; activity in ependymoblastoma [3]: among the most active materials; animals alive per 6 [3]: 5 and 4; survivors, EM [3]: 5; activity in B16 melanoma [4]: approached minimal reproducible activity |
| CCNC1=C(N2CC2)C(=O)C(NCC)=C(N2CC2)C1=O [Compound 35, 2,5-DIAZIRIDINYL-3,6-BIS(ETHYLAMINO)-1,4-BENZOQUINONE] | activity appears to peak | 1.5 mg/kg/injection | 68% and 54% | 3.0 mg/kg/injection and 1.5 mg/kg/injection | 75% and 57% | 1.5 mg/kg/injection | 112% and 91% | 1.5 mg/kg/injection | 0.4 mg/kg/injection and 0.7 mg/kg/injection | 26% and 24% |  | 160% and 103% | 218% and 187% | T-C ([1]; QD1-9, day 5, at OD): -3.3 grams; animals alive per 6 [1]: 2 and 1; survivors, IP L1210 ([1]; Table XI, parentheses, per 6): 2; OD [2]: 3.0 mg/kg/injection; ILS [2]: 44% and 40%; activity in ependymoblastoma [3]: most active; animals alive per 6 [3]: 2; survivors, EM [3]: 2 |
| CCCNC1=C(N2CC2)C(=O)C(NCCC)=C(N2CC2)C1=O [Compound 36] | significant reduction in activity |  | 17% | 6.2 mg/kg/injection | 28% and 25% | 6.2 mg/kg/injection | 48% and 43% | 5.0 mg/kg/injection and 10.0 mg/kg/injection | 5.0 mg/kg/injection | 36% and 32% | 6.0 mg/kg/injection | 151% and 108% | 259% and 143% | animals alive per 6 ([5]; QD1-9, day 30, at OD, Table IX): 2; survivors, P388 ([5]; Table XI, parentheses, per 6): 2; activity in ependymoblastoma [3]: highly active; also recorded: very active; also recorded: most active; animals alive per 6 [3]: 2 and 1; survivors, EM [3]: 2 |
| CCCCNC1=C(N2CC2)C(=O)C(NCCCC)=C(N2CC2)C1=O [Compound 37] | significant reduction in activity | 10.0 mg/kg/injection | 11% and 5% | 12.5 mg/kg/injection and 8.2 mg/kg/injection | 44% and 25% | 10.0 mg/kg/injection and 5.0 mg/kg/injection | 36% and 30% | 6.0 mg/kg/injection and 3.0 mg/kg/injection | 10.0 mg/kg/injection and 5.0 mg/kg/injection |  | 5.0 mg/kg/injection and 10.0 mg/kg/injection | 64% and 49% | 93% |  |
| O=C1C(N2CCCC2)=C(N2CC2)C(=O)C(N2CCCC2)=C1N1CC1 [Compound 43, 2,5-DIAZIRIDINYL-3,6-DIPYRROLIDINO-1,4-BENZOQUINONE] |  | 4.0 mg/kg/injection and 2.0 mg/kg/injection | 8% | 6.2 mg/kg/injection | 43% | 2.0 mg/kg/injection | 24% and 21% | 1.6 mg/kg/injection and 3.1 mg/kg/injection | 2.0 mg/kg/injection | 28% and 18% |  | 72% and 55% |  | T-C ([1]; Q4D, day 5, at OD): -2.3 grams |
| O=C1C(N2CCCCC2)=C(N2CC2)C(=O)C(N2CCCCC2)=C1N1CC1 [Compound 44] |  |  | 16% and 8% |  | 26% and 22% | 10.0 mg/kg/injection | 28% |  | 5.0 mg/kg/injection and 2.5 mg/kg/injection |  | 5.0 mg/kg/injection and 10.0 mg/kg/injection | 46% and 77% | 68% and 46% | T-C ([1]; QD1-9, day 5, at OD): -2.2 grams |
| O=C1C(N2CCOCC2)=C(N2CC2)C(=O)C(N2CCOCC2)=C1N1CC1 [Compound 46, 2,5-DIAZIRIDINYL-3,6-DIMORPHOLINO-1,4-BENZOQUINONE] |  |  | -14% | 6.0 mg/kg/injection | 49% and 44% |  | 64% and 32% |  |  | 24% and 17% | 0.5 mg/kg/injection and 0.7 mg/kg/injection | 52% and 48% | 134% and 82% | T-C ([1]; Q4D, day 5, at OD): -2.6 grams |
